Like-named read-outs stand apart in the source and are kept apart here.
Tests used:
[1] = system: SUM149; assay: Cytotoxicity in vitro in the presence and absence of elastase (MTT); assay type: cell-based; conditions: SUM149 cells, 72 h, MTT
Protocol: (§1) Cultivation of cells was performed according to standard procedures with the media recommended by the provider. The cells, in a total volume of 100 μL, were seeded in a 96-well plate with a white bottom (#3610). After a 24 h incubation period at 37° C. and […], the medium was exchanged by adding 90 μL fresh medium. The treatment started by adding the test compound in 10 μL of culture medium to the cells in triplicates. Concentrations ranging from 10^−5 M to 10^−13 M were chosen. Two identically treated sets of samples were prepared. One set was treated with the test compound alone, whereas to the second set the compound and 10 nM elastase was added followed by a 72 h incubation period at 37° C. and 5% CO2. The proliferation was detected using the MTT assay (ATCC). At the end of the incubation period the MTT reagent was added to all samples for 4 h. Lysis of the cells followed by addition of the detergent was done overnight. The formed dye was detected at 570 nm. The proliferation of untreated but otherwise identically handled cells was define as the […].

[2] = system: 786-O; assay: as above; assay type: cell-based, human; conditions: Homo sapiens, 786-0, 786-O cells, 72 h, MTT
Protocol: as §1

[3] = system: HT29; assay: as above; assay type: cell-based, human; conditions: Homo sapiens, HT-29, HT29 cells, 72 h, MTT
Protocol: as §1

[4] = system: NCI H292; assay: as above; assay type: cell-based, human; conditions: Homo sapiens, NCI H292 cells, 72 h, MTT
Protocol: as §1

[5] = in vitro; conditions: human, Caco-2
Protocol: (§2) Caco-2: The cell permeability of a substance can be investigated by means of in vitro testing in a flux assay using Caco-2 cells [M. D. Troutman and D. R. Thakker, Pharm. Res. 20 (8), 1210-1224 (2003)]. For this purpose, the cells were cultured for 15-16 days on 24-well filter plates. For the determination of permeation, the respective test substance was applied in a HEPES buffer to the cells either apically (A) or basally (B) and incubated for 2 hours. After 0 hours and after 2 hours, samples were taken from the cis and trans compartments. The samples were separated by HPLC (Agilent 1200, Böblingen, Germany) using reverse phase columns. The HPLC system was coupled via a Turbo Ion Spray Interface to a Triple Quadropol mass spectrometer API 4000 (AB SCIEX Deutschland GmbH, Darmstadt, Germany). The permeability was evaluated on the basis of a Papp value, which was calculated using the formula published by Schwab et al. [D. Schwab et al., J. Med. Chem. 46, 1716-1725 (2003)]. A substance was classified as actively transported when the ratio of Papp (B-A) to Papp (A-B) (efflux ratio) was >2 or <0.5. Compounds with an efflux ratio of 0.5-2 are considered not actively transported. In Table 5, reference compounds are provided for comparison. Ref 1 is exatecan mesylate, Ref 2 is DXd, and Ref 3 is 10,11-methylenedioxy-camptothecin (FL118).

[6] = system: NCI H292; assay: Cytotoxicity in vitro in the presence and absence of legumain; assay type: cell-based; conditions: Homo sapiens
[7] = system: HT29; assay: as above; assay type: cell-based; conditions: Homo sapiens
[8] = system: SUM149; assay: as above; assay type: cell-based
[9] = system: 786-O; assay: Cytotoxicity assay (Version 2), automated, AC50, with or without elastase; assay type: cell-based, human; conditions: Homo sapiens, 786-0, 786-O cells, Version 2, activity concentration at −50%
Protocol: as §1
(§3) The Cytotoxicity assay (Version 2) was performed as above described. Some changes were applied as the assays were performed in an automated fashion and the IC50 values determination was changed. Here the change in metabolic activity of the cells, in percent, was calculated by normalization of the measured values to the absorbance values of medium containing wells without cells (=−100%) and the absorbance of the DMSO-treated cells (=0%). AC50 values (activity concentration at −50%) were determined by means of a 4 parameter Hill-fit using GeneData Screener software.

[10] = system: HT29; assay: as above; assay type: cell-based, human; conditions: Homo sapiens, HT-29, HT29 cells, Version 2, activity concentration at −50%
Protocol: as §1, §3

[11] = system: NCI H292; assay: as above; assay type: cell-based, human; conditions: Homo sapiens, NCI H292 cells, Version 2, activity concentration at −50%
Protocol: as §1, §3

[12] = system: SUM149; assay: as above; assay type: cell-based; conditions: SUM149 cells, Version 2, activity concentration at −50%
Protocol: as §1, §3

[13] = system: Caco-2 cells; assay: Caco-2 flux assay for cellular permeability; conditions: Caco-2 cells; for Caco-2 Flux Papp A-B: apical to basal, 2 hours, HEPES buffer; for Caco-2 Flux Efflux ratio: ratio of Papp (B-A) to Papp (A-B), actively transported when >2 or <0.5
Protocol: as §2

[14] = with 10 nM elastase, read-out: SUM149 IC50 w elastase
[15] = without elastase, read-out: SUM149 IC50 w/o
[16] = with 10 nM elastase, read-out: 786-O IC50 w elastase
[17] = without elastase, read-out: 786-O IC50 w/o
[18] = with 10 nM elastase, read-out: HT29 IC50 w elastase
[19] = without elastase, read-out: HT29 IC50 w/o
[20] = with 10 nM elastase, read-out: NCI H292 IC 50 w elastase
[21] = without elastase, read-out: NCI H292 IC 50 w/o

Compound	IC50 [1, 14]	IC50 [1, 15]	IC50 [2, 16]	IC50 [2, 17]	IC50 [3, 18]	IC50 [3, 19]	IC50 [4, 20]	IC50 [4, 21]	Papp A→B at 2 h [5]	efflux ratio at 2 h [5]	Caco-2 Flux Papp A-B [13]	Caco-2 Flux Efflux ratio [13]	further results
CC[C@@]1(O)C(=O)OCc2c1cc1n(c2=O)Cc2c-1nc1cc(F)c(C)c3c1c2[C@@H](NC(C)=O)CC3 [Compound 7, N-[(1S,9S)-9-ethyl-5-fluoro-9-hydroxy-4-methyl-10,13-dioxo-2,3,9,10,13,15-hexahydro-1H,12H-benzo[de]pyrano[3′,4′:6,7]indolizino[1,2-b]quinolin-1-yl]acetamide]	< 0.01 nM	< 0.01 nM	0.01 to 0.1 nM	0.01 to 0.1 nM	0.01 to 0.1 nM	0.01 to 0.1 nM	0.01 to 0.1 nM	0.01 to 0.1 nM	0.1 to 0.9 ×10⁻⁶ cm/s	> 2			
CC[C@@]1(O)C(=O)OCc2c1cc1n(c2=O)Cc2c-1nc1cc(F)c(C)c3c1c2[C@@H](NC(=O)C(F)(F)F)CC3 [Compound 8, N-[(1S,9S)-9-ethyl-5-fluoro-9-hydroxy-4-methyl-10,13-dioxo-2,3,9,10,13,15-hexahydro-1H,12H-benzo[de]pyrano[3′,4′:6,7]indolizino[1,2-b]quinolin-1-yl]-2,2,2-trifluoroacetamide]	< 0.01 nM	< 0.01 nM	0.01 to 0.1 nM	0.01 to 0.1 nM	0.01 to 0.1 nM	0.01 to 0.1 nM	0.01 to 0.1 nM	0.01 to 0.1 nM	1 to 9.9 ×10⁻⁶ cm/s	> 2			
CC[C@@]1(O)C(=O)OCc2c1cc1n(c2=O)Cc2c-1nc1cc(F)c(C)c3c1c2[C@@H](NC(=O)Cc1ccncc1)CC3 [Compound 9, N-[(1S,9S)-9-ethyl-5-fluoro-9-hydroxy-4-methyl-10,13-dioxo-2,3,9,10,13,15-hexahydro-1H,12H-benzo[de]pyrano[3′,4′:6,7]indolizino[1,2-b]quinolin-1-yl]-2-(pyridin-4-yl)acetamide]	0.01 to 0.1 nM	0.01 to 0.1 nM	0.1 to 1 nM	0.1 to 1 nM	0.1 to 1 nM	1.1 to 10 nM	0.1 to 1 nM	0.1 to 1 nM	0.1 to 0.9 ×10⁻⁶ cm/s	> 2			
CC[C@@]1(O)C(=O)OCc2c1cc1n(c2=O)Cc2c-1nc1cc(F)c(C)c3c1c2[C@@H](NC(=O)[C@H](CC(N)=O)NC(=O)Cc1ccncc1)CC3 [Compound 10, N^1-[(1S,9S)-9-ethyl-5-fluoro-9-hydroxy-4-methyl-10,13-dioxo-2,3,9,10,13,15-hexahydro-1H,12H-benzo[de]pyrano[3′,4′:6,7]indolizino[1,2-b]quinolin-1-yl]-N^2-[(pyridin-4-yl)acetyl]-L-aspartamide]													IC50 ([6]; NCI-H292, read-out: NCI H292 IC50 w legumain): > 100 nM; IC50 ([6]; NCI-H292, read-out: NCI H292 IC50 w/o): > 100 nM; IC50 ([7]; HT-29, read-out: HT29 IC50 w legumain): > 100 nM; IC50 ([7]; HT-29, read-out: HT29 IC50 w/o): > 100 nM; IC50 ([8]; SUM149, read-out: SUM149 IC50 w legumain): > 100 nM; IC50 ([8]; SUM149, read-out: SUM149 IC50 w/o): > 100 nM
CCN[C@H]1CCc2c(C)c(F)cc3nc4c(c1c23)Cn1c-4cc2c(c1=O)COC(=O)[C@]2(O)CC.O=C(O)C(F)(F)F [Compound 16, trifluoroacetic acid (1S,9S)-9-ethyl-1-(ethylamino)-5-fluoro-9-hydroxy-4-methyl-1,2,3,9,12,15-hexahydro-10H,13H-benzo[de]pyrano[3′,4′:6,7] indolizino[1,2-b]quinoline-10,13-dione (1/1)]	0.01 to 0.1 nM	0.01 to 0.1 nM	0.1 to 1 nM	0.1 to 1 nM	0.1 to 1 nM	0.1 to 1 nM	0.1 to 1 nM	0.1 to 1 nM	10 to 99.9 ×10⁻⁶ cm/s	0.5 to 2			
CCN(CC)[C@H]1CCc2c(C)c(F)cc3nc4c(c1c23)Cn1c-4cc2c(c1=O)COC(=O)[C@]2(O)CC [Compound 17, (1S,9S)-1-(diethylamino)-9-ethyl-5-fluoro-9-hydroxy-4-methyl-1,2,3,9,12,15-hexahydro-10H,13H-benzo[de]pyrano[3′,4′:6,7]indolizino[1,2-b]quinoline-10,13-dione]	0.1 to 1 nM	0.1 to 1 nM	1.1 to 10 nM	1.1 to 10 nM	1.1 to 10 nM	1.1 to 10 nM	1.1 to 10 nM	1.1 to 10 nM	10 to 99.9 ×10⁻⁶ cm/s	0.5 to 2			AC50 ([9]; with elastase, read-out: 786-O AC50 +elastase): 1.1 to 10 nM; AC50 ([9]; without elastase, read-out: 786-O AC50 −elastase): 1.1 to 10 nM; AC50 ([10]; with elastase, read-out: HT29 AC50 +elastase): 11 to 100 nM; AC50 ([10]; without elastase, read-out: HT29 AC50 −elastase): 11 to 100 nM; AC50 ([11]; with elastase, read-out: NCI H292 AC50 +elastase): 1.1 to 10 nM; AC50 ([11]; without elastase, read-out: NCI H292 AC50 −elastase): 1.1 to 10 nM; AC50 ([12]; with elastase, read-out: SUM149 AC50 +elastase): 1.1 to 10 nM; AC50 ([12]; without elastase, read-out: SUM149 AC50 −elastase): 1.1 to 10 nM
CC[C@@]1(O)C(=O)OCc2c1cc1n(c2=O)Cc2c-1nc1cc(F)c(C)c3c1c2[C@@H](NC(=O)CO)CC3 [Ref 2, DXd, reference compound]											AA (AA: 1-9)	A (A: actively transported)	
CC[C@@]1(O)C(=O)OCc2c1cc1n(c2=O)Cc2cc3cc4c(cc3nc2-1)OCO4 [Ref 3, 10,11-methylenedioxy-camptothecin, reference compound]											CC (CC: 100-999)	B (B: not actively transported)	
exatecan mesylate [Ref 1, reference compound]											CC (CC: 100-999)	B (B: not actively transported)	

Source: patent US20250032477A1, “COMPOUNDS, PHARMACEUTICAL COMPOSITIONS, AND METHODS FOR THE TREATMENT, PREVENTION, OR MANAGEMENT OF HYPERPROLIFERATIVE DISORDERS” (VINCERX PHARMA GMBH, priority 2021, published 2025)
